Tests used:
[1] = system: rats (with normal blood pressure); experiment: Hypotensive action, mean blood pressure of femoral artery in unanesthetized normotensive rats, oral; type: in vivo; conditions: Rattus norvegicus, read-out: % Decreases in Mean Blood Pressure [at peak effect]; for inhibition in vivo at 1 mg/kg: 1 mg/kg oral; for inhibition in vivo at 3 mg/kg: 3 mg/kg oral; for inhibition in vivo at 10 mg/kg: 10 mg/kg oral
Experimental: Blood pressure of femoral artery of rats (with normal blood pressure) under unanesthetized condition was measured directly using a pressure tranducer.
The present invention compounds were given orally at doses of 1, 3 and 10 mg/kg, and changes in blood pressure were continuously recorded. Percent decreases of mean blood pressure at the peak effect were calculated. The maximum changes in mean blood pressure (%) were shown as "hypotensive action" (Table 2).
Hypotensive action of diltiazem (which is a known hypotensive drug) measured by the same method at the doses of 3, 10 and 30 mg/kg were 0, 11.2 and 33.0%, respectively. Hypotensive action of the compound of Example 4 which is one of the most representative compounds of this invention was tested using spontaneously hypertensive rats and was compared with those of Nifedipine and Diltiazem hydrochloride. The method applied was that the drugs were orally given to the rats of which systolic arterial blood pressure were higher than 180 mmHg when it was measured plethysmographically using tail arteries. (Table 3)

guinea pig heart = experiment: Coronary vasodilating action, constant pressure perfusion of isolated guinea pig heart (Langendorff); conditions: Cavia porcellus, via coronary artery, read-out: Perfusion Increasing Rate; for activation at 0.001 mg: 10^-6 gram/heart; for activation at 0.0001 mg: 10^-7 gram/heart
Experimental: Constant pressure perfusion samples of guinea pig heart isolated by a method according to Langendorff were treated with the present invention compounds by administration via coronary artery and the effect was examined (Table 1).
With reference to coronary vasodilating action of diltiazem measured by the same method, the increasing rates in perfusion by administration of 10^-7, 10^-6 and 10^-5 gram/heart were 4, 16 and 55%, respectively.

Compound	inhibition in vivo at 1 mg/kg [1]	inhibition in vivo at 3 mg/kg [1]	inhibition in vivo at 10 mg/kg [1]	activation at 0.001 mg (guinea pig heart)	activation at 0.0001 mg (guinea pig heart)
CCC1COP(=O)(C2=C(C)NC(C)=C(C(=O)OC)C2c2cccc([N+](=O)[O-])c2)OC1 (stereo not drawn) [Example 28, Methyl 5-(5-ethyl-Z-oxo-1,3,2-dioxaphosphorinan-2-yl)-2,6-dimethyl-4-(3-nitrophenyl)-1,4-dihydropyridine-3-carboxylate]	16.5%	26.6%	33.9%	–	–
CC(=O)COC(=O)C1=C(C)NC(C)=C(P2(=O)OCCCO2)C1c1ccccc1C(F)(F)F (stereo not drawn) [Example 76, 2-Oxopropyl 2,6-dimethyl-5-(2-oxo-1,3,2-dioxaphosphorinan-2-yl)-4-(2-trifluoromethylphenyl)-1,4-dihydropyridine-3-carboxylate]	10.5%	35%	40.2%	–	–
CCOC(=O)C1=C(C)NC(C)=C(P2(=O)OCC3(CCCCC3)CO2)C1c1ccccc1[N+](=O)[O-] (stereo not drawn) [Example 43, Ethyl 2,6-dimethyl-4-(2-nitrophenyl)-5-(3-oxo-2,4-dioxa-3-phosphaspiro(5,5)undecan-3-yl)-1,4-dihydropyridine-3-carboxylate]	–	–	–	56%	12%
CCOC(=O)C1=C(C)NC(C)=C(P2(=O)OCC3(CCC3)CO2)C1c1ccccc1[N+](=O)[O-] (stereo not drawn) [Example 39, Ethyl 2,6-dimethyl-4-(2-nitrophenyl)-5-(7-oxo-6,8-dioxa-7-phosphaspiro(3,5)nonan-7-yl)-1,4-dihydropyridine-3-carboxylate]	–	–	–	31%	12%
CC1=C(C(=O)OCCN(C)Cc2ccccc2)C(c2cccc([N+](=O)[O-])c2)C(P2(=O)OCC3(CCC3)CO2)=C(C)N1 (stereo not drawn) [Example 37, 2-(N-Benzyl-N-methylamino)-ethyl-2,6-dimethyl-4-(3-nitrophenyl)-5-(7-oxo-6,8-dioxa-7-phosphaspiro(3,5)nonan-7-yl)-1,4-dihydropyridine-3-carboxylate]	–	–	–	26%	22%
CC1=C(C(=O)OCCN(C)Cc2ccccc2)C(c2cccc([N+](=O)[O-])c2)C(P2(=O)O[C@H](C)C[C@@H](C)O2)=C(C)N1 (stereo partly drawn) [Example 20, 2-(N-Benzyl-N-methylamino)-ethyl 2,6-dimethyl-5-[4(R),6(R)-dimethyl-2-oxo-1,3,2-dioxaphosphorinan-2-yl]-4-(3-nitrophenyl)-1,4-dihydropyridine-3-carboxylate]	–	–	–	32%	10%
CC1=C(C(=O)OCC2CC2)C(c2ccccc2[N+](=O)[O-])C(P2(=O)OCCCO2)=C(C)N1 (stereo not drawn) [Example 68, Cyclopropylmethyl 2,6-dimethyl-4-(2-nitrophenyl)-5-(2-oxo-1,3,2-dioxaphosphorinan-2-yl)-1,4-dihydropyridine-3-carboxylate]	13%	41.7%	45.8%	–	–
CC1=C(C(=O)OCCN(C)Cc2ccccc2)C(c2cccc([N+](=O)[O-])c2)C(P2(=O)OC(C)(C)C(C)(C)O2)=C(C)N1 (stereo not drawn) [Example 48, 2-(N-Benzyl-N-methylamino)-ethyl 2,6-dimethyl-4-(3-nitrophenyl)-5-(2-oxo-4,4,5,5-tetramethyl-1,3,2-dioxaphospholan-2-yl)-1,4-dihydropyridine-3-carboxylate]	–	–	–	35%	13%
CC1=C(C(=O)OC(C)C)C(c2ccccc2[N+](=O)[O-])C(P2(=O)OCCCO2)=C(C)N1 (stereo not drawn) [Example 6, Isopropyl 2,6-dimethyl-4-(2-nitrophenyl)-5-(2-oxo-1,3,2-dioxaphosphorinan-2-yl)-1,4-dihydropyridine-3-carboxylate]	–	–	–	52%	10%
CCC1(CC)COP(=O)(C2=C(C)NC(C)=C(C(=O)OC)C2c2ccccc2[N+](=O)[O-])OC1 (stereo not drawn) [Example 24, Methyl 5-(5,5-diethyl-2-oxo-1,3,2-dioxaphosphorinan-2-yl)-2,6-dimethyl-4-(2-nitrophenyl)-1,4-dihydropyridine-3-carboxylate]	–	–	–	41%	12%
CC1=C(C(=O)OCCN(C)C)C(c2cccc([N+](=O)[O-])c2)C(P2(=O)OCC(C)(C)CO2)=C(C)N1 (stereo not drawn) [Example 10, 2-(N,N-Dimethylamino)ethyl 2,6-dimethyl-5-(5,5-dimethyl-2-oxo-1,3,2-dioxaphosphorinan-2-yl)-4-(3-nitrophenyl)-1,4-dihydropyridine-3-carboxylate]	–	–	–	22%	12%
CCCOCCOC(=O)C1=C(C)NC(C)=C(P2(=O)OCC(C)(C)CO2)C1c1cccc([N+](=O)[O-])c1 (stereo not drawn) [Example 11, 2-n-Propoxyethyl 2,6-dimethyl-5-(5,5-dimethyl-2-oxo-1,3,2-dioxaphosphorinan-2-yl)-4-(3-nitrophenyl)-1,4-dihydropyridine-3-carboxylate]	–	–	–	53%	11%
CCOC(=O)C1=C(C)NC(C)=C(P2(=O)OCCCO2)C1c1ccccc1[N+](=O)[O-] (stereo not drawn) [Example 5, Ethyl 2,6-dimethyl-4-(2-nitrophenyl)-5-(2-oxo-1,3,2-dioxaphosphorinan-2-yl)-1,4-dihydropyridine-3-carboxylate]	39.7%	43.3%	46.2%	–	–
COC(=O)C1=C(C)NC(C)=C(P2(=O)OCC3(CCCCC3)CO2)C1c1cccc([N+](=O)[O-])c1 (stereo not drawn) [Example 40, Methyl 2,6-dimethyl-4-(3-nitrophenyl)-5-(3-oxo-2,4-dioxa-3-phosphoaspiro(5,5)undecan-3-yl)-1,4-dihydropyridine-3-carboxylate]	–	–	–	82%	29%
CCC1COP(=O)(C2=C(C)NC(C)=C(C(=O)OCCN(C)Cc3ccccc3)C2c2cccc([N+](=O)[O-])c2)OC1 (stereo not drawn) [Example 29, 2-(N-Benzyl-N-methylamino)-ethyl 5-(5-ethyl-2-oxo-1,3,2-dioxaphosphorinan-2-yl)-2,6-dimethyl-4-(3-nitrophenyl)-1,4-dihydropyridine-3-carboxylate]	–	–	–	59%	34%
CC1=C(C(=O)OCCN(C)Cc2ccccc2)C(c2cccc([N+](=O)[O-])c2)C(P2(=O)OCCCO2)=C(C)N1 (stereo not drawn) [Example 2, 2-(N-benzyl-N-methylamino)ethyl 2,6-dimethyl-4-(3-nitrophenyl)-5-(2-oxo-1,3,2-dioxaphosphorinan-2-yl)-1,4-dihydropyridine-3-carboxylate]	18.4%	39.2%	50.1%	–	–
CCOC(=O)C1=C(C)NC(C)=C(P2(=O)OCCCO2)C1c1cccc(Cl)c1Cl (stereo not drawn) [Example 57, Ethyl 4-(2,3-dichlorophenyl)-2,6-dimethyl-5-(2-oxo-1,3,2-dioxaphosphorinan-2-yl)-1,4-dihydropyridine-3-carboxylate]	–	–	–	17%	11%
COC(=O)C1=C(C)NC(C)=C(P2(=O)OCC(C)CO2)C1c1cccc([N+](=O)[O-])c1 (stereo not drawn) [Example 26]	28.7%	37.1%	43.8%	–	–
COC(=O)C1=C(C)NC(C)=C(P2(=O)OCC(C)(C)CO2)C1c1cccc([N+](=O)[O-])c1 (stereo not drawn) [Example 7, Methyl 2,6-dimethyl-5-(5,5-dimethyl-2-oxo-1,3,2-dioxaphosphorinan-2-yl)-4-(3-nitrophenyl)-1,4-dihydropyridine-3-carboxylate]	12.7%	18.4%	31.4%	–	–
CCOC(=O)C1=C(C)NC(C)=C(P2(=O)OCCCO2)C1c1ccccc1C(F)(F)F (stereo not drawn) [Example 51, Ethyl 2,6-dimethyl-5-(2-oxo-1,3,2-dioxaphosphorinan-2-yl)-4-(2-trifluoromethylphenyl)-1,4-dihydropyridine-3-carboxylate]	21.1%	43%	45.4%	–	–
CC1=C(C(=O)OCCN(C)Cc2ccccc2)C(c2cccc([N+](=O)[O-])c2)C(P2(=O)OCC(C)(C)CO2)=C(C)N1 (stereo not drawn) [Example 9, 2-(N-Benzyl-N-methylamino)-ethyl 2,6-dimethyl-5-(5,5-dimethyl-2-oxo-1,3,2-dioxaphosphorinan-2-yl)-4-(3-nitrophenyl)-1,4-dihydropyridine-3-carboxylate]	12.7%	12.9%	40.4%	–	–
CC1=C(C(=O)OCCN(C)Cc2ccccc2)C(c2ccccc2OC(F)F)C(P2(=O)OCC(C)(C)CO2)=C(C)N1 (stereo not drawn) [Example 64, 2-(N-Benzyl-N-methylamino)-ethyl 4-(2-difluoromethoxyphenyl)-2,6-dimethyl-5-(5,5-dimethyl-2-oxo-1,3,2-dioxaphosphorinan-2-yl)-1,4-dihydropyridine-3-carboxylate]	6.9%	16.5%	41.5%	–	–
COC(=O)C1=C(C)NC(C)=C(P2(=O)OC(C)CC(C)O2)C1c1ccccc1[N+](=O)[O-] (stereo not drawn) [Example 18, Methyl 2,6-dimethyl-5-(4,6-dimethyl-2-oxo-1,3,2-dioxaphosphorinan-2-yl)-4-(2-nitrophenyl)-1,4-dihydropyridine-3-carboxylate]	15.7%	42.7%	45.5%	–	–

Source: patent US5036059A, “1,4-Dihydropyridine-3-carboxylate derivatives” (Nippon Shinyaku Company, Limited, priority 1984, dated 1991)
